Measured values reported in patent US20050137522A1, “System for infusing insulin to a subject to improve impaired hepatic glucose processing” (priority 2003, published 2005).
Entries after “also recorded” stand apart in the source; their conditions may differ.

Columns and labels:
Format in all cases: in vivo, human
[1] = test system: type 2 diabetic patient with diabetes related kidney disease; experiment: Case report: diabetes related kidney disease (proteinuria) treated with the subject method; settings: before treatment 1500 milligrams of protein during 24 hours, rising 500 milligrams/24 hours/year; 5 years of treatment
Experimental: An older type 2 diabetic was exercising and had excellent circulating glucose control under intense insulin therapy including 3-4 injections per day of subcutaneous insulin. Even so, their diabetes related kidney disease had progressed to the point where they were discharging 1500 milligrams of protein during a 24-hour period and the rate of increase was 500 milligrams/24 hours/year. After using the subject method, the patient's proteinuria was reduced to 600-800 milligrams/24 hours. They have been using the method for 5 years.
(§1) For all of the above listed examples, after the initial few days of treatment, the patients underwent treatment once a week, each treatment day consisting of three infusions of insulin accompanied by ingestion of carbohydrates. The infusion device used to infuse the insulin was the BIONICA MD-110 pump. Typically there were ten pulses given over a period of one hour, and a rest period of one hour was taken between infusions of insulin. The form in which the carbohydrates were ingested changed from time to time and included eating foods of high glycemic index including but not limited to bread and cake. The patients' circulating glucose was measured once every thirty minutes by the finger stick method currently used by most diabetic patients. […]

[2] = test system: type 2 diabetic male suffering with autonomic neuropathy; experiment: Case report: elevated blood pressure with autonomic neuropathy treated with the subject method; settings: before treatment 200/120 despite intensive insulin therapy; 5 years of treatment
From the text: An older type 2 diabetic […] suffering with autonomic neuropathy had very elevated blood pressure readings of 200/120 despite a rigorous program to regulate their circulating glucose using intensive insulin therapy of 3 to 4 subcutaneous insulin injections daily. As a result of using the subject method, their blood pressure decreased to 120/80. They have been using the method for 5 years.
(§2) For all of the above listed examples, after the initial few days of treatment, the patients underwent treatment once a week, each treatment day consisting of three infusions of insulin accompanied by ingestion of carbohydrates. The infusion device used to infuse the insulin was the BIONICA MD-110 pump. Typically there were ten pulses given over a period of one hour, and a rest period of one hour was taken between infusions of insulin. The form in which the carbohydrates were ingested changed from time to time and included eating foods of high glycemic index including but not limited to bread and cake. The patients' circulating glucose was measured once every thirty minutes by the finger stick method currently used by most diabetic patients. […] Table 1 below summarizes by the above examples the number of units of insulin per pulse administered and the amount of glucose ingested for each series of pulses: […]

[3] = Circulating glucose by finger stick during insulin pulse treatments; settings: during the first treatment; all examples; finger stick every thirty minutes
From the text: as §2

[4] = test system: type 1 DM patients with nephropathy; experiment: 18-month multi-center, prospective, controlled study of CIIIT on progression of diabetic nephropathy
Experimental: as §1, with “A study was conducted to assess the effects of Chronic Intermittent Intravenous Insulin Therapy (CIIIT) on the progression of diabetic nephropathy in patients with type 1 diabetes mellitus (DM). This 18-month multi-center, prospective, controlled study involved 49 type 1 DM patients with nephropathy who were following the Diabetes Control and Complications Trial (DCCT) intensive therapy (IT) regimen. Of these, 26 patients formed the control group C, which continued on IT, while 23 patients formed the treatment group (T) and underwent, in addition to IT, weekly CIIIT. […] For” for “For”

[5] = test system: diabetic patients with neuropathy; experiment: Case reports: diabetic neuropathy treated with the subject method
From the text: A middle-aged person with Type 1 diabetes for more than 22 years suffered from polyneuropathy. They had generalized pain and was unable to walk or even wear stockings because of the pain.
A middle-aged person with Type 1 diabetes for more than 30 years had severe peripheral neuropathy, was in constant pain below the knees and had difficulty sleeping at night. […] They have been using the treatment for eight years.
An elder type 2 diabetic patient had severe painful peripheral neuropathy to the point that they were unable to walk and used a wheelchair. […] Because of financial reasons, they stopped the therapy. As a result, the neuropathy returned, and they returned to using a wheelchair.
A middle-aged type 1 diabetic patient had severe neuropathy. They were a parent of two children who was bed-ridden with autonomic neuropathy before using the subject method two years ago. Their muscles had atrophied, they could not digest their food, they had been told that their nerves were dying inside them as a result of their diabetes. They stated that if they had not have two children, they would have taken their life. They had to quit their job, went on disability and was in an out of the hospital very often. They had welts on their head causing hair loss. They had no sensation in their feet, they had constant nausea, and they couldn't sleep at night because of the pain. They had insulin absorption problems and tried all different ways to improve the absorption of insulin into their body. For a number of years they injected themself intramuscularly because they felt that they obtained the best absorption of insulin that way. […] They have not been in the hospital since. […]
(§3) For all of the above listed examples, after the initial few days of treatment, the patients underwent treatment once a week, each treatment day consisting of three infusions of insulin accompanied by ingestion of carbohydrates. […] The patients' circulating glucose was measured once every thirty minutes by the finger stick method currently used by most diabetic patients. […]

[6] = test system: diabetic patients with leg ulcers; experiment: Case reports: diabetes related leg ulcers treated with the subject method; settings: ulcers not responding to any available therapy, Examples 10 and 11; listed as subject method
From the text: An older type 2 diabetic had one amputated leg as a result of diabetes related ulcers on that leg. They had developed ulcers on the other leg that would not respond to any available therapy and was in danger of losing the other leg to amputation. […] This patient used the subject method for several more years, and no additional ulcers formed.
A middle-aged type 1 diabetic patient had developed severe ulcers on both legs, which would not heal with any available treatment. […] The patient has been using the subject method now for 13 years.
as §1

[7] = test system: diabetic patients with retinopathy; experiment: Case reports: retinopathy treated with the subject method
From the text: A middle-aged person with type 1 diabetes for 38 years suffered from macular degeneration (retinopathy). They were unable to drive at night. […] The patient has been receiving treatment for 4 years.
A middle-aged type 2 diabetic patient had proliferative diabetic retinopathy with severe bleeding. Multiple photocoagulation scars made additional photocoagulation impossible. […] The patient has been using the subject method for 5 years, and they have had no further bleeding of the retina and no further photocoagulation.
as §1

[8] = test system: diabetic patients with heart disease; experiment: Case reports: diabetic heart disease treated with the subject method
From the text: A middle-aged person with type 2 diabetes for 17 years was suffering from severe dilated cardiomyopathy (ejection fraction 14-19%). They were placed on the list to receive a heart transplant prior to starting treatment with the subject method. […] The patient has been receiving treatment for 10 years and is still off the heart transplant list. Their ejection fraction is currently 29-32%.
A middle-aged type 2 diabetic patient had severe heart disease including congestive heart failure and severe artereosclerotic heart disease. The patient was scheduled for heart surgery but because of their poor condition, surgeons refused to operate.
An older type 1 diabetic patient who was diabetic was scheduled for a coronary artery by-pass graft to correct their diabetes related heart disease. The surgeons were reluctant to operate in the condition they were in because of their advanced diabetes related arteriosclerosis. They were scheduled for a single vessel graft. […] They continuing using the subject method for several years after the surgery with no further deterioration in their diabetes related heart disease.
as §2

[9] = test system: patients suffering from senile dementia; experiment: Senile dementia in patients treated with Hepatic Activation / the present invention; settings: diabetic patients with senile dementia
From the text: On many occasions patients who have been diabetics as well as having dementia have been treated with the method of the current invention. Dementia appears to be related to poor metabolism of glucose in the brain, which may well be the result of constricted flow of blood. This poor metabolism is at least in part the cause of the dementia.
A diabetic who was suffering from advanced senile dementia was placed in a nursing home because of excessive confusion, weakness, disorientation and lack of memory. Because the nursing home was not keeping up the strict four shot regimen needed by the patient for their diabetic blood sugar control, the patient's children removed the patient from the nursing home. The attending doctor recommended Hepatic Activation. Once the patient was activated, they returned to a totally independent living style.
as §3, with “carbohydrates. The infusion device used to infuse the insulin was the BIONICA MD-110 pump.” for “carbohydrates.”

[10] = type 1 patient with severe autonomic neuropathy, Example 14

**Q.** Which results are given for insulin [CIIIT]?
**A.** proteinuria [1]: 600-800 milligrams/24 hours; blood pressure [2]: 120/80; rise of circulating glucose levels [3]: 100 to 150 mg/dL; progression of diabetic nephropathy ([4]; CIIIT added to IT in type 1 DM patients with overt nephropathy): markedly reduce the progression of diabetic nephropathy; rate of CrCl decline ([4]; type 1 DM patients with nephropathy, 18 months, T group (weekly CIIIT added to IT, 23 patients) vs C group (IT alone, 26 patients), P=0.0343): 2.21±1.62 ml/min/yr; neuropathic pain after treatment ([5]; single patients with polyneuropathy / peripheral neuropathy, listed as subject method): the pain has been reduced to the point where the person enjoys rigorous exercise; also recorded: no longer takes pain medication and has no twinges of pain in their legs; also recorded: the pain had subsided to the point where they no longer used a wheelchair; gastroparesis [5, 10]: Her gastroparesis was reversed; numbness in legs [5, 10]: The numbness in their legs has gone away; leg ulcers [6]: the ulcers on their second leg healed; also recorded: the ulcers healed and have never returned; eyesight ([7]; type 1 person, macular degeneration (retinopathy), unable to drive at night before treatment, 4 years of treatment): eyesight improved to the point where night driving was no longer a concern; retinal bleeding ([7]; type 2 male, proliferative diabetic retinopathy with severe bleeding, 5 years of treatment): the bleeding stopped, and there was no further deterioration of the retina; postoperative recovery ([8]; after by-pass surgery, Examples 6 and 8, listed as subject method): normal postoperative recovery; insulin intake ([8]; same patient, Example 4, before treatment 150 units a day): 24-26 units/day; cardiac condition / need or fitness for heart surgery ([8]; single patients, Examples 4, 6, 8, listed as subject method): no longer required a heart transplant; also recorded: could withstand 4-vessel by-pass surgery; also recorded: their condition improved to the point where the doctors performed two instead of one grafts; ejection fraction ([8]; type 2 diabetic patient, severe dilated cardiomyopathy, before treatment 14-19%, after 10 years of treatment): 29-32%; senile dementia symptoms ([9]; listed as Hepatic Activation): significant improvement in their motor skills, memory, and cognitive function; senile dementia symptoms ([9]; listed as present invention): clearly shown improvement in confusion, weakness, disorientation, cognitive function and lack of memory
